# Results published in ChEMBL document CHEMBL4184084, “Discovery of Mcl-1 inhibitors based on a thiazolidine-2,4-dione scaffold” (Bioorg Med Chem Lett, 2018).
# Tests used:
# [1] = target: Induced myeloid leukemia cell differentiation protein Mcl-1 (Homo sapiens, UniProt Q07820); assay: Inhibition of FITC-labeled Bak-BH3 peptide binding to MCL1 (172 to 371 residues) (unknown origin) by fluorescence polarization competition assay
# Bcl-2-like protein 1 = Bcl-2-like protein 1 (Homo sapiens, UniProt Q07817); assay: Inhibition of FITC-labeled Bak-BH3 peptide binding to Bcl-XL (2 to 212 residues) (unknown origin) by fluorescence polarization assay
# Chain of Bcl-2-like protein 1 (Q07817 whole entry, the tested form may be a part): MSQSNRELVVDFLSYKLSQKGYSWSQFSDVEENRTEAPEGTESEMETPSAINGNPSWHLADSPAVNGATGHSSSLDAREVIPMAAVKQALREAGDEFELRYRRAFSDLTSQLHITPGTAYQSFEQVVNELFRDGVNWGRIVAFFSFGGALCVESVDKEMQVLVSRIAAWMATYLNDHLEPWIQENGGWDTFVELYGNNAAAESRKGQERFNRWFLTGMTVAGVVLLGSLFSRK
# Chain of Induced myeloid leukemia cell differentiation protein Mcl-1 (Q07820 whole entry, the tested form may be a part): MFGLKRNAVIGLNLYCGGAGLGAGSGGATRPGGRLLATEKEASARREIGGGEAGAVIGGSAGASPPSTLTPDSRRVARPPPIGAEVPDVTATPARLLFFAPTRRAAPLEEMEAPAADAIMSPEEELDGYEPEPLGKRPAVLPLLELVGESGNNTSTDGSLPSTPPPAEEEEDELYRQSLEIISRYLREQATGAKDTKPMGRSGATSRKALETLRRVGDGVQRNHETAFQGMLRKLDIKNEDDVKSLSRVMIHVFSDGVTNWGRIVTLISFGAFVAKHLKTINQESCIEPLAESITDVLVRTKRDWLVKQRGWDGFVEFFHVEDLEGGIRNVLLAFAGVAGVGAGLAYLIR
Ki [1] [nM],Ki (Bcl-2-like protein 1) [nM],Structure (SMILES)
2340,,Cc1cc(Oc2ccc(/C=C3\SC(=O)N(CC(=O)O)C3=O)cc2)cc(C)c1Cl
8780,,CC(C)C[C@@H](C(=O)O)N1C(=O)S/C(=C\c2ccc(Br)cc2)C1=O
1190,,Cc1cc(Oc2ccc(/C=C3\SC(=O)N([C@H](C(=O)O)C(C)C)C3=O)cc2)cc(C)c1Cl
845,,CC(C)(C)c1ccc(/C=C2\SC(=O)N([C@@H](Cc3ccccc3)C(=O)O)C2=O)cc1
1940,,Cc1cc(Oc2ccc(/C=C3\SC(=O)N([C@@H](C)C(=O)O)C3=O)cc2)cc(C)c1Cl
1000,,Cc1cc(Oc2ccc(/C=C3\SC(=O)N([C@H](CC(C)C)C(=O)O)C3=O)cc2)cc(C)c1Cl
878,,Cc1cc(Oc2ccc(/C=C3\SC(=O)N([C@H](Cc4ccccc4)C(=O)O)C3=O)cc2)cc(C)c1Cl
> 100000,,CC(C)C[C@@H](C(=O)O)N1C(=O)S/C(=C\c2ccccc2)C1=O
290,,O=C(O)[C@H](Cc1ccccc1)N1C(=O)S/C(=C\c2cccc(Br)c2)C1=O
791,,Cc1cc(Oc2ccc(/C=C3\SC(=O)N([C@@H](CC(C)C)C(=O)O)C3=O)cc2Br)cc(C)c1Cl
2780,,Cc1cc(Oc2ccc(/C=C3\SC(=O)N([C@H](C)C(=O)O)C3=O)cc2)cc(C)c1Cl
> 100000,,CC(C)C[C@@H](C(=O)O)N1C(=O)S/C(=C\c2ccc(O)cc2)C1=O
> 100000,,Cc1cc(Oc2ccc(/C=C3\SC(=O)NC3=O)cc2)cc(C)c1Cl
155,90,Cc1cc(Oc2ccc(/C=C3\SC(=O)N([C@@H](Cc4ccccc4)C(=O)O)C3=O)cc2)cc(C)c1Cl
2130,,CC(C)C[C@@H](C(=O)O)N1C(=O)S/C(=C\c2cccc(Br)c2)C1=O
419,,Cc1cc(Oc2ccc(/C=C3\SC(=O)N([C@@H](CC(C)C)C(=O)O)C3=O)cc2)cc(C)c1Cl
10200,,Cc1cc(Oc2ccc(CC3SC(=O)N(CC(=O)O)C3=O)cc2)cc(C)c1Cl (configuration not stated)
2220,,CC(C)C[C@@H](C(=O)O)N1C(=O)S/C(=C\c2ccc(C(C)(C)C)cc2)C1=O
> 100000,,COC(=O)[C@H](CC(C)C)N1C(=O)S/C(=C\c2ccc(Oc3cc(C)c(Cl)c(C)c3)cc2)C1=O
12700,,CC(C)C[C@@H](C(=O)O)N1C(=O)S/C(=C\c2ccc(Oc3ccccc3)cc2)C1=O
> 100000,,Cc1cc(Oc2ccc(/C=C3\SC(=O)N([C@@H](CC(C)C)C(N)=O)C3=O)cc2)cc(C)c1Cl
